Laboratory results: patent US20050165032A1, “Vanilloid receptor ligands and their use in treatments” (priority 2004, published 2005)

melting point | SMILES
304 to 306 °C | Cl.Clc1ccc2c(Nc3ccc4c(c3)OCCO4)ncnc2c1
229.8 °C | CC(=O)Nc1nc2c(Nc3ncnc4cc(Cl)ccc34)cccc2s1 [Example 2, N-[4-(7-Chloro-quinazolin-4-ylamino)-benzothiazol-2-yl]-acetamide]
144.5 to 150 °C | FC(F)(F)c1ccc(Nc2ncnc3c2CCN(c2ncccc2C(F)(F)F)C3)cn1 [Example 10, (6-Trifluoromethyl-pyridin-3-yl)-[7-(3-trifluoromethyl-pyridin-2-yl)-5,6,7,8-tetrahydro-pyrido[3,4-d]pyrimidin-4-yl]-amine]
162 to 163 °C | CC(C)(C)c1ccc(Oc2ncnc3cc(-c4ncccc4C(F)(F)F)ccc23)cc1 [Example 17, 4-(4-tert-Butyl-phenoxy)-7-(3-trifluoromethyl-pyridin-2-yl)-quinazoline]
